Experimental data as given in ChEMBL document CHEMBL6109146, “Discovery of New Pyrazolone Carbothioamide Derivatives as Potent Antifungal Agents for the Treatment of Candidiasis and Cryptococcosis” (J Med Chem, 2025).
In brackets after ≈: the same amount, converted by molar mass. Activity calls are given as the source filed them. The rule behind the calls is not given here.

Assays:
[1] = Half-life in male ICR mouse at 2 mg/kg, iv measured after 24 hrs by LC-MS/MS analysis; format: ADME, organism-based; conditions: in vivo
[2] = Cmax in male ICR mouse at 2 mg/kg, iv measured after 24 hrs by LC-MS/MS analysis; format: ADME, organism-based; conditions: in vivo
[3] = AUC (0 to t) in male ICR mouse at 20 mg/kg, po measured after 24 hrs by LC-MS/MS analysis; format: ADME, organism-based; conditions: in vivo
[4] = AUC (0 to infinity) in male ICR mouse at 20 mg/kg, po measured after 24 hrs by LC-MS/MS analysis; format: ADME, organism-based; conditions: in vivo
[5] = Oral bioavailability in male ICR mouse at 20 mg/kg measured after 24 hrs by LC-MS/MS analysis; format: ADME, organism-based; conditions: in vivo
Candida albicans [6] = assay: Antifungal activity against Candida albicans SC5314 assessed as inhibition of fungal growth incubated for 48 to 72 hrs by microplate reader analysis; format: functional, organism-based; conditions: time 48-72 hrs
Candida albicans [7] = assay: Antifungal activity against Candida albicans 103 assessed as inhibition of fungal growth incubated for 48 to 72 hrs by microplate reader analysis; format: functional, organism-based; conditions: time 48-72 hrs
Candida albicans [8] = assay: Antifungal activity against Candida albicans 9296 assessed as inhibition of fungal growth incubated for 48 to 72 hrs by microplate reader analysis; format: functional, organism-based; conditions: time 48-72 hrs
[Candida] auris [9] = Antifungal activity against Candida auris 0029 assessed as inhibition of fungal growth incubated for 48 to 72 hrs by microplate reader analysis; format: functional, organism-based; conditions: Candidozyma auris, time 48-72 hrs
[Candida] auris [10] = Antifungal activity against Candida auris 0030 assessed as inhibition of fungal growth incubated for 48 to 72 hrs by microplate reader analysis; format: functional, organism-based; conditions: Candidozyma auris, time 48-72 hrs
Cryptococcus neoformans [11] = assay: Antifungal activity against Cryptococcus neoformans H99 assessed as inhibition of fungal growth incubated for 48 to 72 hrs by microplate reader analysis; format: functional; conditions: time 48-72 hrs
Cryptococcus neoformans [12] = assay: Antifungal activity against Cryptococcus neoformans 011409 assessed as inhibition of fungal growth incubated for 48 to 72 hrs by microplate reader analysis; format: functional; conditions: time 48-72 hrs
Cryptococcus neoformans [13] = assay: Antifungal activity against Cryptococcus neoformans HN-68 assessed as inhibition of fungal growth incubated for 48 to 72 hrs by microplate reader analysis; format: functional; conditions: time 48-72 hrs
[14] = Antifungal activity against Cryptococcus gattii 01063P assessed as inhibition of fungal growth incubated for 48 to 72 hrs by microplate reader analysis; format: functional; conditions: time 48-72 hrs
Nakaseomyces glabratus [15] = assay: Antifungal activity against Candida glabrata 8535 assessed as inhibition of fungal growth incubated for 48 to 72 hrs by microplate reader analysis; format: functional; conditions: time 48-72 hrs
Nakaseomyces glabratus [16] = assay: Antifungal activity against Candida glabrata 0161 assessed as inhibition of fungal growth incubated up to 72 hrs by microplate reader analysis; format: functional, organism-based; conditions: dose 0.13-0.00049 µg/ml
Nakaseomyces glabratus [17] = assay: Fungistatic activity against Candida glabrata 0161 assessed as inhibition of fungal growth at 0.031 microg/ml incubated up to 72 hrs by microplate reader analysis; format: functional, organism-based; conditions: dose 0.031 µg/ml
Nakaseomyces glabratus [18] = assay: Antifungal activity against Candida glabrata 0161 assessed as inhibition of fungal growth at 0.13 microg/ml incubated up to 72 hrs by microplate reader analysis relative to control; format: functional
Cryptococcus neoformans [19] = assay: Antifungal activity against Cryptococcus neoformans H99 assessed as inhibition of fungal growth at 0.031 microg/ml incubated for 72 hrs by microplate reader analysis; format: functional, organism-based; conditions: dose 0.031 µg/ml
Cryptococcus neoformans [20] = assay: Antifungal activity against Cryptococcus neoformans H99 assessed as inhibition of fungal growth at 0.13 microg/ml incubated for 72 hrs by microplate reader analysis relative to control; format: functional
Cryptococcus neoformans [21] = assay: Fungicidal activity against Cryptococcus neoformans H99 incubated for 72 hrs by time-kill kinetics analysis; format: functional
Cryptococcus neoformans [22] = assay: Antifungal activity against Cryptococcus neoformans H99 assessed as inhibition of fungal growth at 4 microg/ml incubated for 48 hrs by spot-plating assay; format: functional, organism-based; conditions: dose 4.0 µg/ml
Nakaseomyces glabratus [23] = assay: Inhibition of biofilm formation in Candida glabrata 0161 at 16 to 32 microg/ml incubated for 24 hrs by XTT reagent based assay relative to control; format: functional; conditions: dose 16-32 µg/ml, at 16 to 32 µg/mL
Cryptococcus neoformans [24] = assay: Inhibition of biofilm formation in Cryptococcus neoformans H99 at 32 microg/ml incubated for 24 hrs by XTT reagent based assay relative to control; format: functional
Cryptococcus neoformans [25] = assay: Inhibition of melanin production in Cryptococcus neoformans H99 at 0.125 microg/ml by photographic analysis relative to control; format: functional
Cryptococcus neoformans [26] = assay: Induction of morphological changes in Cryptococcus neoformans H99 assessed as mitochondrial fragmentation at 4 microg/ml incubated for 8 hrs by transmission electron microscopic analysis; format: functional, organism-based; conditions: dose 4.0 µg/ml
Cryptococcus neoformans [27] = assay: Induction of morphological changes in Cryptococcus neoformans H99 assessed as vacuole fragmentation at 4 microg/ml incubated for 8 hrs by transmission electron microscopic analysis; format: functional, organism-based; conditions: dose 4.0 µg/ml
Cryptococcus neoformans [28] = assay: Induction of oxidative damage in Cryptococcus neoformans H99 assessed as increase in MDA level at 4 microg/ml incubated for 24 hrs relative to control; format: functional; conditions: dose 4 µg/ml
Nakaseomyces glabratus [29] = assay: Induction of oxidative damage Candida glabrata 0161 assessed as increase in MDA level incubated for 24 hrs; format: functional, organism-based
Cryptococcus neoformans [30] = assay: Upregulation of TSA1 gene expression in Cryptococcus neoformans H99 at 4 microg/ml incubated for 8 hrs by qRT-PCR analysis; format: functional; conditions: dose 4.0 µg/ml
Cryptococcus neoformans [31] = assay: Upregulation of TRR1 gene expression in Cryptococcus neoformans H99 at 4 microg/ml incubated for 8 hrs by qRT-PCR analysis; format: functional; conditions: dose 4.0 µg/ml
Nakaseomyces glabratus [32] = assay: Upregulation of TRX1 gene expression in Candida glabrata 0161 incubated for 8 hrs by qRT-PCR analysis; format: functional
Cryptococcus neoformans [33] = assay: Antifungal activity against Cryptococcus neoformans H99 assessed as inhibition of fungal growth by measuring fold increase in MIC in presence of Fe(II) ion; format: functional
Nakaseomyces glabratus [34] = assay: (§1) Antifungal activity against Candida glabrata 0161 infected in candidiasis female ICR mouse model assessed as reduction in fungal burden in kidney at 20 mg/kg, po pre-infected with fungi for 3 hrs followed by compound administration and measured after 5 days; format: functional, organism-based; conditions: time 5.0 day
Cryptococcus neoformans [35] = assay: Antifungal activity against Cryptococcus neoformans H99 infected in cryptococcosis female ICR mouse model assessed as reduction in fungal burden in brain at 20 mg/kg, po pre-infected with fungi for 3 hrs followed by compound administration and measured after 5 days; format: functional, organism-based; conditions: time 5.0 day
Cryptococcus neoformans [36] = assay: (§2) Antifungal activity against Cryptococcus neoformans H99 infected in cryptococcosis female ICR mouse model assessed as reduction in fungal burden in brain at 20 mg/kg, ip pre-infected with fungi for 3 hrs followed by compound administration and measured after 5 days; format: functional, organism-based; conditions: time 5.0 day
Nakaseomyces glabratus [37] = assay: as §1, with “in detachment of renal tubular epithelial cells” for “in fungal burden in kidney”, “mg/kg, ip” for “mg/kg, po”, “days by H and E staining based analysis” for “days”; format: functional, organism-based; conditions: time 5.0 day
Cryptococcus neoformans [38] = assay: Antifungal activity against Cryptococcus neoformans H99 infected in cryptococcosis female ICR mouse model assessed as neat arrangement of neuronal cells at 5 to 20 mg/kg, ip pre-infected with fungi for 3 hrs followed by compound administration and measured after 5 days by H and E staining based analysis; format: functional, organism-based; conditions: dose 5-20 mg/kg, time 5.0 day
Cryptococcus neoformans [39] = assay: as §2, with “cysts formation” for “fungal burden”, “brain cortex” for “brain”, “5” for “20”, “days by H and E staining based analysis” for “days”; format: functional, organism-based; conditions: time 5.0 day
Cryptococcus neoformans [40] = assay: Antifungal activity against Cryptococcus neoformans H99 infected in cryptococcosis female ICR mouse model assessed as reduction in vacuolation in brain at 5 mg/kg, ip pre-infected with fungi for 3 hrs followed by compound administration and measured after 5 days by H and E staining based analysis; format: functional, organism-based; conditions: time 5.0 day

half-life [1]: 2.12 h
Cmax [2]: 2810 ng/mL
AUC(0-t) at 24 h [3]: 4600 ng·h/mL
AUC(0-inf) [4]: 4740 ng·h/mL
bioavailability [5]: 22.6%
MIC80 (Cryptococcus neoformans [11]): 0.38 nM (≈ 0.12 ng/mL)
MIC80 (Cryptococcus neoformans [12]): 1.2 10^-4 ug/ml
MIC80 (Cryptococcus neoformans [13]): 1.2 10^-4 ug/ml
MIC80 [14]: 1.2 10^-4 ug/ml
MIC80 (Nakaseomyces glabratus [15]): 1.2 10^-4 ug/ml
Structure (SMILES): Nc1cc(=O)n(C(=S)Nc2ccc(C3CCCCC3)cc2)[nH]1
Activity (Candida albicans [6]): Active
Activity (Candida albicans [7]): Active
Activity (Candida albicans [8]): Active
Activity ([Candida] auris [9]): Active
Activity ([Candida] auris [10]): Active
Activity (Nakaseomyces glabratus [16]): Dose-dependent-effect
Activity (Nakaseomyces glabratus [17]): Active; Significantly Better Activity Observed Than Fluconazole At 8 Microg/Ml
inhibition at 0.13 µg/mL (Nakaseomyces glabratus [18]): 100%
Activity (Cryptococcus neoformans [19]): Active; Significantly Better Inhibitory Effect Observed Than Fluconazole At 8.0 Microg/Ml
inhibition at 0.13 µg/mL (Cryptococcus neoformans [20]): 100%
MFC (Cryptococcus neoformans [21]): 16 µg/mL (≈ 50.6 µM)
Activity (Cryptococcus neoformans [22]): Moderate_effect
inhibition (INH) (Nakaseomyces glabratus [23]): ~100%
inhibition at 32 µg/mL (Cryptococcus neoformans [24]): 77%
inhibition at 0.125 µg/mL (Cryptococcus neoformans [25]): 100%
Activity (Cryptococcus neoformans [26]): Active
Activity (Cryptococcus neoformans [27]): Active
Activity (Cryptococcus neoformans [28]): ~20%
Activity (Nakaseomyces glabratus [29]): Active
Activity (Cryptococcus neoformans [30]): Active
Activity (Cryptococcus neoformans [31]): Active
Activity (Nakaseomyces glabratus [32]): Active
fold change (FC) (Cryptococcus neoformans [33]): ~1000
Activity (Nakaseomyces glabratus [34]): Active
Activity (Cryptococcus neoformans [35]): Active
Activity (Cryptococcus neoformans [36]): Active
Activity (Nakaseomyces glabratus [37]): Active
Activity (Cryptococcus neoformans [38]): Active
Activity (Cryptococcus neoformans [39]): Active
Activity (Cryptococcus neoformans [40]): Not active; Slight Vacuolation Observed
